How the values were obtained:
[1] = cited from earlier work
[2] = system: women suffering of depressive syndrome; test: Controlled study of antidepressant activity, Hamilton rating scale for depression (HAMD test); assay type: in vivo
Protocol: They are divided onto two groups by randomization: • (i) A control group (N = 32) received once-a-day combined (in the same syringe) dose of 20 mg of sulpiride (1; 0.4 mL) diluted with physiological solution (2.0 mL) by subcutaneous injection during three months (90 days).
The duration of administering was three months (90 days; also subcutaneously).
Neurosurg. Psychiatr. […] Psychiatr.
For the 17-item version of HAMD test, scores can range from 0 to 54. […]
The above results were subjected to paired T-test. […] Paired T-test is usually chosen to establish the difference between groups, i.e. their mean values during the Study.
The study was followed by the use of Hamilton rating scale for depression (HAMD test).

Which oral bioavailability [1] does the source give for `CCN1CCCC1CNC(=O)c1cc(S(N)(=O)=O)ccc1OC` (racemic) [sulpiride, (R,S)-(±)-5-(aminosulfonyl)-N-[(1-ethylpyrrolidin-2-yl)methyl]-2-methoxybenzamide] here?
Its oral bioavailability is 25-35%.

What about the HAMD ([2]; After the Study, once-a-day subcutaneous injection, 20 mg of sulpiride, three months (90 days)) of the same compound?
The HAMD was 17.34 ± 8.77.

What about the HAMD ([2]; Before the Study (baseline), 17-item HAMD score, range 0 to 54) of the same compound?
Its HAMD is 18.91 ± 9.19.

And the “Mean difference (paired T-test, HAMD before vs after the Study)” value ([2]; once-a-day subcutaneous injection, 20 mg of sulpiride, 90 days)?
Its value is 1.60.
